Data taken from patent US20210017607A1, “Methods of Predicting Responsiveness to Cancer Therapies” (The University of Chicago, priority 2019, published 2021).

Columns and labels:
[1] = tested on: Myc-CAP (STING^lo) cancer cells; test: IFNβ1 ELISA of supernatants after DMXAA treatment; assay type: cell-based, mouse; conditions: 36 hours
Procedure: (§1) FIGS. 15A-15E. Differential STING pathway activation within B6-Myc (STING^hi) cell lines and BMDMs relative to Myc-CAP (STING^lo) cells. (15A, 15B) The indicated cancer cell lines and BMDMs were treated with DMXAA (mouse STING agonist) for 1 and 24 hours, respectively, and protein extracts were interrogated for cGAS/STING pathway activation with the indicated antibodies by Western blotting. Supernatants were collected from for IFNβ1 ELISA following 36 hours of treatment with DMXAA (15C, 15D). (15E) Syngeneic Myc-CAP (STING^lo) tumors were processed into single cell suspensions and used for phycoerythrin-based sorting of CD45+ cellular fractions. Equal numbers of cells from these fractions were stimulated with DMXAA. Supernatants were collected at 36 hrs for detection of IFNB1 by ELISA; n=3 independent experiments; Significance/p-values were calculated by one-way Anova (for 15C & 15E) or paired t-test (for 15D); TAM=tumor associated macrophage; s.e.=short exposure; l.e.=long exposure.
(§2) Cancer Cell Lines. Transgenic c-myc” prostate tumor derived cell line, Myc-CAP) (STING^lo) was obtained from ATCC and passaged in 1× DMEM (without phenol red) containing 10% fetal bovine serum, 1% penicillin-streptomycin and 2% L-glutamine. The corresponding c-myc^hi line derived from a C57BL6 generated background were grown for in vitro studies, using same culture conditions as for Myc-CAP. […]

[2] = tested on: B6-Myc (STING^hi) cancer cells; test: IFNβ1 ELISA of supernatants after DMXAA treatment; assay type: cell-based, mouse; conditions: 36 hours
Procedure: as §1, §2

[3] = tested on: PARP enzymatic activity; test: Intratumoral target inhibition by western blotting; assay type: in vivo, mouse; conditions: B6-Myc and Myc-CAP tumors; 150 mg/kg oral gavage daily 7 days
Procedure: (§3) FIGS. 18A and 18B. Buparlisib and Rucaparib inhibit intratumoral Pi3K and PARP enzymatic activity, respectively, within B6-Myc (STING^hi) and Myc-CAP (STING^lo) tumors. Subcutaneous Myc-CAP (STING^lo) and B6-Myc (STING^hi) tumors at 400-500 mm^3 volumes were treated with either buparlisib (pan-PI3K inhibitor, 30 mg/kg) or rucaparib (PARP inhibitor, 150 mg/kg) by oral gavage daily for 7 days. At end of treatment, both (18A) B6-Myc (STING^hi) and (18B) Myc-CAP (STING^lo) tumors were harvested and protein extracts utilized for assessment of target inhibition with the indicated antibodies by western blotting. n=2 mice per treatment group.
(§4) Western Blot Analysis. RIPA and T-PER buffer (Thero Scientific®), supplemented with protease (Roche®) and HALT phosphatase inhibitor cocktail (Roche®), were used for preparation of lysates from in vitro cell lines and whole tumor chunks, respectively. For western blotting, the following antibodies were used from Cell Signaling Technology®: Polyclonal rabbit anti-mouse-phospho-γH2AX, phospho-AKT, total AKT, cGAS, STING, phospho-IRF3, total IRF3, phospho-TBK1, total TBK1, PTEN, β-actin and GAPDH. Monoclonal anti-mouse PAR antibody was obtained from Trevigen®. Images of scanned blots were processed using ADOBE Photoshop®.

[4] = tested on: B6-Myc (STING^hi) cells; test: p-γH2AX foci (DNA DSBs) by confocal microscopy; assay type: cell-based, mouse; conditions: 36 hours; rucaparib 500 nM, buparlisib 1 μM
Procedure: FIGS. 17A-17C. PARPi/PI3Ki combination induces intracellular DNA DSBs, and proportionate release of MV surface-associated DNA DSBs from B6-Myc (STING^hi) cancer cells, without affecting cellular viability. B6-Myc (STING^hi) cells were treated with indicated drugs singly or in combination for 36 hours. (17A) Cells were stained with anti-mouse specific p-γH2AX antibody and fluorescently labeled secondary antibody for determination of DNA DSBs, which were quantified by confocal microscopy. (17B) Protein extracts from cells in (17A) were analyzed for the indicated pharmacodynamic biomarkers by western blotting. […] Significance/p-values were calculated by one-way ANOVA.
Confocal Microscopy. […] Staining for DNA DSBs was done with anti-mouse primary antibody specific for phospho-γH2AX (1:500 dilution, Cell Signaling Technology and secondary anti-rabbit IgG antibody conjugated to AF647 (1:1000-1:2000 dilution in 1×PBS, Thermo Fisher Scientific®). Anti-mouse specific β-actin conjugated to Phycoerythrin (PE, Thermo Fisher Scientific®) was used to stain the cytoskeleton. All staining procedures were done at 4° C. for 30 minutes. Cells were then washed 3 times with 1×PBS and imaged immediately. All images were collected using an Olympus Fluoview® 1000 using a 100× oil objective. Acquired images were analyzed by ImageJ software, developed at NIH.

[5] = tested on: PARP; test: In vitro target inhibition by western blotting (PARylation); assay type: cell-based, mouse
[6] = tested on: Pi3K enzymatic activity; test: Intratumoral target inhibition by western blotting; assay type: in vivo, mouse; conditions: B6-Myc and Myc-CAP tumors; 30 mg/kg oral gavage daily 7 days
Procedure: as §3, §4

## Cc1ccc2c(=O)c3cccc(CC(=O)O)c3oc2c1C [DMXAA, 5,6-Dimethylxanthenone-4-acetic Acid]
[1]
  induction in IFN-β levels: not observed
[2]
  fold induction in IFN-β levels: 48.1 fold

## CNCc1ccc(-c2[nH]c3cc(F)cc4c3c2CCNC4=O)cc1 [rucaparib]
[3]
  intratumoral PARP enzymatic activity: inhibit
[4]
  DNA double-strand breaks (p-γH2AX foci): did not show a statistically significant increase
[5]; B6-Myc cells (FIG. 17B)
  concentration that achieved complete target inhibition in vitro: 500 nM
[5]; B6-Myc in vitro
  concentration that completely inhibits PARylation: 500 nm
[5]; Myc-CAP cells (FIG. 29B)
  complete target inhibition concentration: 500 nM

## Nc1cc(C(F)(F)F)c(-c2cc(N3CCOCC3)nc(N3CCOCC3)n2)cn1 [buparlisib]
[6]
  intratumoral Pi3K enzymatic activity: inhibit
